{"source": "ChEMBL document CHEMBL1811813", "about": "“Synthesis and cytotoxicity of the depsipeptides analogues of callipeltin B” (Bioorg Med Chem Lett, 2011)", "format_in_all_cases": "functional, cell-based", "key": {"HeLa [1]": {"test_system": "HeLa", "assay": "Cytotoxicity against human HeLa cells assessed as protease release from damaged cell after at 4-1000 uM after 24 hrs by luminometry"}, "HeLa [2]": {"test_system": "HeLa", "assay": "Cytotoxicity against human HeLa cells assessed as protease release from damaged cell at 4-100 uM after 24 hrs by luminometry"}, "HeLa [3]": {"test_system": "HeLa", "assay": "Cytotoxicity against human HeLa cells after 24 hrs by luminometry"}}, "note": "pIC50: −log10 of the molar value. Activity calls are given as the source filed them. The rule behind the calls is not given here. Positions of bridges follow the written chain, without caps; N, C: chain ends. Non-standard residues stand in square brackets, D forms with d. Residues, ends and D or L forms follow the SMILES beside them. *: point of attachment. X1 = C[C@@H](OC(C)(C)C)[C@H](NC(=O)[C@@H](NC(=O)[C@@H]1CCC(=O)N1)[C@@H](C)O*)C(=O)O; NHTrityl = c1ccc(C(N*)(c2ccccc2)c2ccccc2)cc1; Pbf = Cc1c(C)c(S(=O)(=O)*)c(C)c2c1OC(C)(C)C2; NMeQ = CN[C@@H](CCC(N)=O)C(=O)O; pGlu = O=C1CC[C@@H](C(=O)O)N1; NMeA = CN[C@@H](C)C(=O)O; Boc = CC(C)(C)OC(=O)*; tBu = CC(C)(C)*", "data": [{"smiles": "Cc1c(C)c(S(=O)(=O)NC(=N)NCCC[C@H](NC(=O)[C@@H](NC(=O)[C@@H](NC(=O)[C@H](CCC(N)=O)NC(=O)OC(C)(C)C)[C@@H](C)O)[C@@H](C)OC(C)(C)C)C(=O)N[C@@H](CC(C)C)C(=O)N[C@@H](CCC(=O)NC(c2ccccc2)(c2ccccc2)c2ccccc2)C(=O)N[C@@H](Cc2ccc(OC(C)(C)C)cc2)C(=O)N[C@@H](C)C(=O)O)c(C)c2c1OC(C)(C)C2", "note": "(Boc-QTT(tBu)R(Pbf)LE(NHTrityl)Y(tBu)A-OH)", "values": [{"measurement": "Activity", "setting": "HeLa [1]", "result": "inactive"}]}, {"smiles": "Cc1c(C)c(S(=O)(=O)NC(=N)NCCC[C@@H]2NC(=O)[C@H]([C@@H](C)OC(C)(C)C)NC(=O)[C@@H](NC(=O)[C@@H](N)CCC(N)=O)[C@@H](C)OC(=O)[C@H](C)NC(=O)[C@H](Cc3ccc(OC(C)(C)C)cc3)NC(=O)[C@H](CCC(=O)NC(c3ccccc3)(c3ccccc3)c3ccccc3)NC(=O)[C@H](CC(C)C)NC2=O)c(C)c2c1OC(C)(C)C2", "note": "(H-QTT(tBu)R(Pbf)LE(NHTrityl)Y(tBu)A; ester 2-C)", "values": [{"measurement": "Activity", "setting": "HeLa [2]", "result": "inactive"}]}, {"smiles": "Cc1c(C)c(S(=O)(=O)NC(=N)NCCC[C@H](N)C(=O)N[C@@H](CC(C)C)C(=O)N[C@@H](CCC(=O)NC(c2ccccc2)(c2ccccc2)c2ccccc2)C(=O)N[C@@H](Cc2ccc(OC(C)(C)C)cc2)C(=O)N[C@@H](C)C(=O)O[C@H](C)[C@H](NC(=O)[C@@H]2CCC(=O)N2)C(=O)N[C@H](C(=O)O)[C@@H](C)OC(C)(C)C)c(C)c2c1OC(C)(C)C2", "note": "(H-R(Pbf)LE(NHTrityl)Y(tBu)A-X1)", "values": [{"measurement": "pIC50", "setting": "HeLa [3]", "result": 2.65}]}, {"smiles": "CC(C)C[C@@H]1NC(=O)[C@H](CCCNC(=N)N)NC(=O)[C@H]([C@@H](C)O)NC(=O)[C@@H](NC(=O)[C@@H]2CCC(=O)N2)[C@@H](C)OC(=O)[C@H](C)NC(=O)[C@H](Cc2ccc(O)cc2)NC(=O)[C@H](CCC(N)=O)NC1=O", "note": "([pGlu]TTRLQYA; ester 2-C)", "values": [{"measurement": "Activity", "setting": "HeLa [2]", "result": "inactive"}]}, {"smiles": "CC(C)C[C@@H]1NC(=O)[C@H](C)N(C)C(=O)[C@H]([C@@H](C)O)NC(=O)[C@@H](NC(=O)[C@@H]2CCC(=O)N2)[C@@H](C)OC(=O)[C@H](CCC(N)=O)NC(=O)[C@H](Cc2ccc(O)cc2)NC(=O)[C@H](CCCNC(=N)N)NC1=O", "note": "([pGlu]TT[NMeA]LRYQ; ester 2-C)", "values": [{"measurement": "Activity", "setting": "HeLa [2]", "result": "inactive"}]}, {"smiles": "CC(C)C[C@@H]1NC(=O)[C@H](C)N(C)C(=O)[C@H]([C@@H](C)O)NC(=O)[C@@H](NC(=O)[C@@H]2CCC(=O)N2)[C@@H](C)OC(=O)[C@H](CCC(N)=O)N(C)C(=O)[C@H](Cc2ccc(O)cc2)NC(=O)[C@H](CCCNC(=N)N)NC1=O", "note": "([pGlu]TT[NMeA]LRY[NMeQ]; ester 2-C)", "values": [{"measurement": "Activity", "setting": "HeLa [2]", "result": "inactive"}]}, {"smiles": "C=C(C)[C@H]1Cc2c(ccc3c2O[C@@H]2COc4cc(OC)c(OC)cc4[C@@H]2C3=O)O1", "note": "[ROTENONE]", "values": [{"measurement": "pIC50", "setting": "HeLa [3]", "result": 4.11}]}]}
